From patent US20030100479A1, “Gene polymorphisms and response to treatment” (priority 2001, published 2003)
“Also recorded” adds a separate entry of the source.

Assay: Clinical trial of GW320659: change in supine heart rate (time-adjusted AUC), by genotype
Assay type: in vivo, human
Design: Change in Heart Rate, Mean / Heart Rate (mean time adusted change): unit not given here
Description: Using genotyping methods as are well known in the art, genetic data were obtained from approximately 200 of more than 500 human subjects enrolled in a dose-ranging efficacy and safety study of GW320659 for weight loss (main study group; a randomized, double-blind, placebo controlled, dose-ranging clinical trial); GW320659 was used in conjunction with a mildly hypocaloric diet and brief weight management guidance. Subjects were between the ages of 18-65 years, with a Body Mass Index (BMI) of 30-40, and were not on any psychotropic medications or other anti-obesity medications. Subjects were randomized into one of five treatment groups: placebo or GW320659 at 2.5 mg/day, 5 mg/day, 10 mg/day, or 15 mg/day (oral administration). In the main study group, for the GW320659 15 mg/day dosage, average weight loss was approximately 3.7 kg (108 subjects; data not shown).
Subjects were assessed for various parameters, including absolute change in body weight from week 0 to week 24 of the study; supine heart rate, diastolic blood pressure and systolic blood pressure at multiple predetermined time-points across the study; and change in Food Craving Inventory (Total) score from week 0 to week 24.
Analyses of changes in cardiovascular endpoints (HR, SBP, DBP, all measured in supine subjects) were conducted individually for each of the polymorphic sites, and analyzed as follows. Vital sign assessments at all post-baseline visits were analyzed utilizing a repeated measures (mixed) ANOVA model. Genotype by treatment interactions were assessed. The following model was used.
If the treatment by time interaction was non-significant, the corresponding term was planned to be removed from the model, prior to assessing treatment by genotype interaction. Subsequently, this term was removed for all vital signs analyses. In addition, vital signs data was analyzed utilizing a time-weighted area under the curve (adjusted for baseline) analysis. Model #2 (used for the efficacy analyses) was employed for these analyses.
The multilocus genotypes from each individual were used to enumerate all possible haplotypes. These haplotypes were assigned starting frequencies. The haplotype frequencies were updated with frequencies calculated from all the possible haplotypes from each individual in the sample. This continued until the frequencies were constant from iteration to iteration.
Regression-based models were used to relate inferred haplotype probabilities for each individual with the continuous response.
Supine heart rate (HR), supine systolic blood pressure (SBP) and supine diastolic blood pressure (DBP) were assessed at various fixed intervals across the duration of the study. Summaries and analyses were conducted on the “area under the curve” (AUC) values (adjusted for time on study and baseline). All reported p-values in this section refer to AUC analyses, using Model No.2 as described above.
As in Food Craving Inventory (Example 6, above), manual splits were created by treatment dose (placebo, 2.5+5 mg, and 10+15 mg). The p-value threshold was then set at 0.10 (the minimum level necessary to get further automatic splits). The software then determined the remaining splits for the 10+15 mg group. The splits found in the 10+15 mg group were then manually duplicated for the lower dose groups (for comparison purposes).

SMILES: C[C@@H]1CO[C@@](O)(c2cc(F)cc(F)c2)[C@H](C)N1.Cl [GW320659, (2S,3S,5R)-2-(3,5-difluorophenyl)-3,5-dimethyl-2-morpholinol]
- Increase in heart rate compared to subjects with alternate genotypes (DRD2 C12121T (2′,2) and MAOBG644A (1,1) genotypes, 10 mg/day or 15 mg/day): larger increase in heart rate
- Changes in heart rate compared to subjects with alternate genotypes (NET1 T342C (2,2) and without DRD2 C12121T (2,2), 10 mg/day or 15 mg/day): decreased changes in heart rate and blood pressure; also recorded: comparatively small changes in HR, SBP and DBP
- Change in Heart Rate, Mean (haplotype 1,1 5HTTC867T 5HTTT3287C, All Ethnicities, 10 and 15 mg combined (Table 6)): 3.5075
- Change in Heart Rate, Mean (haplotype 1,1 5HTTC867T 5HTTT3287C, Caucasians, 10 and 15 mg combined (Table 7)): 3.811
- Change in Heart Rate, Mean (haplotype 1,1 5HTTDel-Ins 5HTTC867T, All Ethnicities, 10 and 15 mg combined (Table 6)): 4.2
- Change in Heart Rate, Mean (haplotype 1,1 5HTTDel-Ins 5HTTC867T, Caucasians, 10 and 15 mg combined (Table 7)): 4.077
- Change in Heart Rate, Mean (haplotype 1,1,1 5HTTDel-Ins 5HTTC867T 5HTT3287C, All Ethnicities, 10 and 15 mg combined (Table 6)): 5.48
- Change in Heart Rate, Mean (haplotype 1,1,1 5HTTDel-Ins 5HTTC867T 5HTT3287C, Caucasians, 10 and 15 mg combined (Table 7)): 5.69
- Change in Heart Rate, Mean (haplotype 1,1,2 5HTTDel-Ins 5HTTC867T 5HTT3287C, All Ethnicities, 10 and 15 mg combined (Table 6)): −0.6849
- Change in Heart Rate, Mean (haplotype 1,1,2 5HTTDel-Ins 5HTTC867T 5HTT3287C, Caucasians, 10 and 15 mg combined (Table 7)): −0.8345
- Change in Heart Rate, Mean (haplotype 1,2 5HTTC867T 5HTTT3287C, All Ethnicities, 10 and 15 mg combined (Table 6)): −0.6851
- Change in Heart Rate, Mean (haplotype 1,2 5HTTC867T 5HTTT3287C, Caucasians, 10 and 15 mg combined (Table 7)): −0.8347
- Change in Heart Rate, Mean (haplotype 1,2 5HTTDel-Ins 5HTTC867T, All Ethnicities, 10 and 15 mg combined (Table 6)): 6.424
- Change in Heart Rate, Mean (haplotype 1,2 5HTTDel-Ins 5HTTC867T, Caucasians, 10 and 15 mg combined (Table 7)): 6.807
- Change in Heart Rate, Mean (haplotype 1,2,1 5HTTDel-Ins 5HTTC867T 5HTT3287C, All Ethnicities, 10 and 15 mg combined (Table 6)): 6.404
- Change in Heart Rate, Mean (haplotype 1,2,1 5HTTDel-Ins 5HTTC867T 5HTT3287C, Caucasians, 10 and 15 mg combined (Table 7)): 6.808
- Change in Heart Rate, Mean (haplotype 2,1 5HTTC867T 5HTTT3287C, All Ethnicities, 10 and 15 mg combined (Table 6)): 5.565
- Change in Heart Rate, Mean (haplotype 2,1 5HTTC867T 5HTTT3287C, Caucasians, 10 and 15 mg combined (Table 7)): 5.827
- Change in Heart Rate, Mean (haplotype 2,1 5HTTDel-Ins 5HTTC867T, All Ethnicities, 10 and 15 mg combined (Table 6)): 2.183
- Change in Heart Rate, Mean (haplotype 2,1 5HTTDel-Ins 5HTTC867T, Caucasians, 10 and 15 mg combined (Table 7)): 3.034
- Change in Heart Rate, Mean (haplotype 2,1,1 5HTTDel-Ins 5HTTC867T 5HTT3287C, All Ethnicities, 10 and 15 mg combined (Table 6)): 2.256
- Change in Heart Rate, Mean (haplotype 2,1,1 5HTTDel-Ins 5HTTC867T 5HTT3287C, Caucasians, 10 and 15 mg combined (Table 7)): 3.11
- Change in Heart Rate, Mean (haplotype 2,2 5HTTDel-Ins 5HTTC867T, All Ethnicities, 10 and 15 mg combined (Table 6)): 4.879
- Change in Heart Rate, Mean (haplotype 2,2 5HTTDel-Ins 5HTTC867T, Caucasians, 10 and 15 mg combined (Table 7)): 5.085
- Change in Heart Rate, Mean (haplotype 2,2,1 5HTTDel-Ins 5HTTC867T 5HTT3287C, All Ethnicities, 10 and 15 mg combined (Table 6)): 4.782
- Change in Heart Rate, Mean (haplotype 2,2,1 5HTTDel-Ins 5HTTC867T 5HTT3287C, Caucasians, 10 and 15 mg combined (Table 7)): 4.92
- Mean rise in HR (subgroup 2,2 for NET1T342C and/or NET1G155A and/or NR1G6435A, 10 mg and 15 mg combined): 4.7 bpm
- Overall mean time-adjusted change in Heart Rate, mean rise (subgroup 2,2 for NET1T342C and/or NET1G155A and/or NR1G6435A, 10 mg/day+15 mg/day, not significantly different from placebo): 4.7 beats per minute
- Heart Rate (mean time adusted change) (subgroup 2/2 NET1T342C and/or 2/2 NET1G155A and/or 2/2 NR1G6435A, 10 mg/day+15 mg/day, 26 subjects): 4.666
- Mean change in HR (subgroup DRD2 C12121T (1,1) and MAOB G644A (1,1), 10 mg and 15 mg dosing): 13 bpm
- Overall mean time-adjusted change in Heart Rate, mean increase (subgroup DRD2C12121T=2,2 and MAOBG644A=1,1, 10 mg/day+15 mg/day): 13 beats per minute
